Test system: healthy male participants
Experiment: Subjective effects, visual analog scales (VAS), methylone trial
Format: in vivo, humans
Experimental: Methylone pharmacology was evaluated in a study designed as a randomized, double-blind, placebo-controlled, crossover clinical trial. Four pilot studies were conducted administering methylone at oral doses of 50 (n = 3), 100 (n = 6), 150 (n = 5), and 200 mg (n = 7). Participants attended 3 experimental sessions separated by a one-week wash-out period and received two doses of methylone (one dose per experimental session) compared to placebo, except in the last pilot study in which participants received one dose of methylone, compared to MDMA and placebo. However, in this manuscript, only the results corresponding to the highest methylone doses (n = 12; 150 and 200 mg; mean dose = 179.2 mg) are presented, to enable comparison with clephedrone self-administration. Participants were recruited by word of mouth in the volunteer database of the clinical pharmacology unit.
Methylone hydrochloride of high purity in powder form was acquired from LGC Standards (Teddington, UK) for the controlled study. The Pharmacy Department of the Hospital Universitari Germans Trias i Pujol was responsible for manufacturing, storing, and dispensing identical and opaque soft gelatin capsules containing 50 mg of methylone or a placebo (maltodextrin). Treatment consisted of 5 capsules that combined methylone and/or a placebo to reach the target dose. Details can be found in the previous article.
Subjective effects were evaluated with visual analog scales (VAS), the short form of the Addiction Research Center Inventory (ARCI), and the Evaluation of Subjective Effects of Substances with Abuse Potential questionnaire (VESSPA-SSE). In addition, the Sensitivity to Drug Reinforcement Questionnaire (SDRQ) and a pharmacological identification class questionnaire were used in the controlled study administering methylone.
VAS encompassed several adjectives that participants had to rate from “not at all” (0 mm) to “extremely” (100 mm) according to their sensations. This scale included 28 items: intensity, stimulated, high, good effects, bad effects, liking, changes in distances, changes in colors, changes in shapes, changes in lights, hallucinations (seeing lights or spots), hallucinations (seeing things, animals, insects, or people), changes in hearing, hallucinations (hearing sounds or voices), drowsiness, concentration, dizziness, confusion, different or changed body feeling, unreal body feeling, different surroundings, unreal surroundings, open, trust, feeling close to others, I want to be with other people, I want to hug someone, sexual desire, and sexual arousal.
Participants included in the naturalistic clephedrone study completed VAS at baseline, 0.50, 1, 1.5, 2, 3, 4, and 5 h, and ARCI and VESSPA at baseline, 1, 2, 3, 4, and 5 h after self-administering clephedrone. In the controlled study, VAS was performed at baseline and 0.25, 0.50, 0.75, 1, 1.5, 2, 3, 4, 6, 8, 10, and 24 h, and ARCI and VESSPA at baseline and 1, 2, 3, 4, 6, 8, and 10 h after administering methylone. Participants completed SDRQ and VAS sexual desire and arousal at baseline, 1 and 10 h, and the pharmacological class identification questionnaire at 8 h.
For statistical analysis, values of physiological (SBP, DBP, HR, and T) and subjective effects (VAS, ARCI, and VESSPA-SSE) were baseline–adjusted. Maximum effects (Emax) and the time needed to reach maximum effects (Tmax) were determined, and the area under the curve up to 5 h (AUC0–5h) for clephedrone and up to 6 h (AUC0–6h) for methylone was calculated using the trapezoidal rule. Emax and AUC values are presented as mean ± standard deviation, whereas Tmax is presented in median (range).
To find possible significant changes through the time course compared to baseline, a Dunnett multiple comparison test was carried out to compare each time point with baseline in both drug conditions. […]

[1] = 150 or 200 mg oral, n=12, listed as methylone
[2] = AUC0–6h, 150 or 200 mg oral, n=12

CNC(C)C(=O)c1ccc2c(c1)OCO2 (stereo not shown) [Methylone, 3,4-methylenedioxy-N-methylcathinone]
VAS Bad effects Emax (150 or 200 mg oral, n=12): 0.17 ± 0.58 mm
VAS Changes in colors Emax (150 or 200 mg oral, n=12): 0.00 ± 0.00 mm
VAS Changes in colors Tmax (150 or 200 mg oral, n=12): 0.0 (0.0–0.0) h
VAS Changes in distances Emax (150 or 200 mg oral, n=12): 1.58 ± 5.48 mm
VAS Changes in distances Tmax (150 or 200 mg oral, n=12): 0.0 (0.0–1.0) h
VAS Changes in hearing Emax (150 or 200 mg oral, n=12): 0.42 ± 1.44 mm
VAS Changes in hearing Tmax (150 or 200 mg oral, n=12): 0.0 (0.0–0.5) h
VAS Changes in lights Emax (150 or 200 mg oral, n=12): 0.00 ± 0.00 mm
VAS Changes in lights Tmax (150 or 200 mg oral, n=12): 0.0 (0.0–0.0) h
VAS Concentration Emax (150 or 200 mg oral, n=12): 2.50 ± 4.21 mm
VAS Confusion Emax (150 or 200 mg oral, n=12): 1.33 ± 2.57 mm
VAS Different or changed body feeling Emax (150 or 200 mg oral, n=12): 12.25 ± 10.68 mm
VAS Different surroundings Emax (150 or 200 mg oral, n=12): 0.33 ± 1.15 mm
VAS Dizziness Emax (150 or 200 mg oral, n=12): 3.08 ± 5.33 mm
VAS Drowsiness Emax (150 or 200 mg oral, n=12): 10.17 ± 16.16 mm
VAS Feeling close to others Emax (150 or 200 mg oral, n=12): 15.92 ± 19.97 mm
VAS Good effects Emax (150 or 200 mg oral, n=12): 29.75 ± 21.60 mm
VAS High Emax (150 or 200 mg oral, n=12): 26.67 ± 18.12 mm
VAS I want to be with other people Emax (150 or 200 mg oral, n=12): 17.42 ± 20.62 mm
VAS I want to hug someone Emax (150 or 200 mg oral, n=12): 15.33 ± 21.76 mm
VAS Intensity Emax (150 or 200 mg oral, n=12): 25.17 ± 18.95 mm
VAS Liking Emax (150 or 200 mg oral, n=12): 30.33 ± 23.26 mm
VAS Open Emax (150 or 200 mg oral, n=12): 15.67 ± 19.21 mm
VAS Sexual arousal Emax (150 or 200 mg oral, n=12): 0.50 ± 1.45 mm
VAS Sexual desire Emax (150 or 200 mg oral, n=12): 1.08 ± 2.07 mm
VAS Trust Emax (150 or 200 mg oral, n=12): 15.92 ± 20.07 mm
VAS Unreal body feeling Emax (150 or 200 mg oral, n=12): 0.00 ± 0.00 mm
VAS Unreal surroundings Emax (150 or 200 mg oral, n=12): 0.00 ± 0.00 mm
VAS Feeling close to others Emax [1]: > 15 mm
VAS Good effects Emax [1]: exceeding 20 mm
VAS High Emax [1]: exceeding 20 mm
VAS I want to be with other people Emax [1]: > 15 mm
VAS I want to hug someone Emax [1]: > 15 mm
VAS Intensity Emax [1]: exceeding 20 mm
VAS Liking Emax [1]: exceeding 20 mm
VAS Open Emax [1]: > 15 mm
VAS Stimulated Emax [1]: exceeding 20 mm
VAS Trust Emax [1]: > 15 mm
VAS Bad effects AUC0-5/6 h [2]: 0.06 ± 0.22 mm·h
VAS Changes in colors AUC0-5/6 h [2]: 0.00 ± 0.00 mm·h
VAS Changes in distances AUC0-5/6 h [2]: 0.72 ± 2.49 mm·h
VAS Changes in hearing AUC0-5/6 h [2]: 0.10 ± 0.36 mm·h
VAS Changes in lights AUC0-5/6 h [2]: 0.00 ± 0.00 mm·h
VAS Concentration AUC0-5/6 h [2]: 1.95 ± 3.58 mm·h
VAS Confusion AUC0-5/6 h [2]: 1.46 ± 3.43 mm·h
VAS Different or changed body feeling AUC0-5/6 h [2]: 7.96 ± 8.16 mm·h
VAS Different surroundings AUC0-5/6 h [2]: 0.17 ± 0.58 mm·h
VAS Dizziness AUC0-5/6 h [2]: 3.31 ± 6.88 mm·h
VAS Drowsiness AUC0-5/6 h [2]: 19.98 ± 33.41 mm·h
VAS Feeling close to others AUC0-5/6 h [2]: 14.20 ± 16.71 mm·h
VAS Good effects AUC0-5/6 h [2]: 26.38 ± 22.79 mm·h
VAS High AUC0-5/6 h [2]: 22.85 ± 18.54 mm·h
VAS I want to be with other people AUC0-5/6 h [2]: 16.94 ± 19.79 mm·h
VAS I want to hug someone AUC0-5/6 h [2]: 14.27 ± 19.51 mm·h
VAS Intensity AUC0-5/6 h [2]: 20.30 ± 18.35 mm·h
VAS Liking AUC0-5/6 h [2]: 28.45 ± 24.43 mm·h
VAS Open AUC0-5/6 h [2]: 15.04 ± 17.47 mm·h
VAS Sexual arousal AUC0-5/6 h [2]: 2.50 ± 7.23 mm·h
VAS Sexual desire AUC0-5/6 h [2]: 5.42 ± 10.33 mm·h
VAS Stimulated AUC0-5/6 h [2]: 20.30 ± 18.35 mm·h
VAS Trust AUC0-5/6 h [2]: 15.08 ± 18.74 mm·h
VAS Unreal body feeling AUC0-5/6 h [2]: 0.00 ± 0.00 mm·h
VAS Unreal surroundings AUC0-5/6 h [2]: 0.00 ± 0.00 mm·h
Time of peak pharmacological effects (oral): 0.75–1 h
